Several values for one entry are separate records, joined by “and”; a condition that tells them apart may be missing. Equal values may be shown once.
How the values were obtained:
[1] = system: normal human hair follicles; test: Protection against degeneration of cultured human hair follicles; format: cell-based; settings: precultured 7 days, then treated 7 days
Source text: The aim of this test is to show the effect of the compounds used according to the invention on degeneration of the follicles in in vitro cultures of human hair follicles.
Method: Normal human hair follicles are isolated by microdissection of human scalp (lifting) and cultured as in Example 4. The bulbs are all precultured (“aged”, without treatment) for 7 days (D7), and then left untreated or treated by the invention for a further 7 days (D14). The follicles are photographed and the morphology is analysed.

normal human melanocytes [2] = test: Cytotoxicity (MTT reduction) and amount of proteins (Bradford), normal human melanocyte cultures; format: cell-based; settings: for Proteins / MTT: 10 days; for MTT: control = 100
Source text: (§1) after culturing for 10 days under standard conditions, in 24-well plates, in Promocell medium free of “phorbol myristate acetate” (PMA):
the cytotoxicity, by estimating the reduction of “methyl thiazolyl tetrazolium” (MTT), the amount of proteins, by assay according to the Bradford method and observation of the cell lawns, […]

[3] = system: normal human keratinocytes; test: Phagocytosis of fluorescent beads by keratinocytes (flow cytometry); format: cell-based; settings: for % Positive cells (cells which have phagocytozed more than twice the basal phagocytosis), single replicates / Positive cells, % Control / % Positive cells, Mean: 24 hours; for % Positive cells, Mean: triplicate
Description: The aim of this test is to show the effect of the compounds used according to the invention on modulation of the phagocytosis of particles by the keratinocytes.
Method: Normal human keratinocytes are cultured in KSFM medium and treated for 24 hours with the compounds according to the invention, in the presence of calibrated fluorescent beads (Molecular Probes) of the size of melanosomes. The phagocytosis of the particles is visualized by fluorescence microscopy, and the cells are then harvested after trypsination and analysed by flow cytometry, to determine the number of cells that have phagocytozed a threshold number of particles and the intensity of the phagocytozed overall fluorescence (10 000 cells analysed per condition, in triplicate).

[4] = system: B16F10-line mouse melanoma cells; test: Cytotoxicity (MTT) and amount of proteins (Bradford), B16F10 cultures; format: cell-based; settings: for Proteins / MTT: 7 days; for MTT: control = 100
Source text: (§2) after culturing for 7 days under standard conditions, in 24-well plates, DMEM medium containing 10% calf serum:
the cytotoxicity, by estimating the […] of MTT, the amount of proteins, by assay according to the Bradford method and observation of the cell lawns, […]

keratinocytes = test: Proliferation/protein synthesis of keratinocytes; format: cell-based
[5] = system: B16F10-line mouse melanoma cells; test: Melanin synthesis by B16F10-line melanocytes (7-day culture); format: cell-based; settings: 7 days
Description: The melanogenesis-stimulating effect of silybin was measured on B16F10-line mouse melanoma cells.
(§3) For silybin, the following were determined:
as §2
the amount of melanin present in the cultures, by spectrophotometric measurement of the melanin produced, after alkaline extraction, relative to 100% of the control (the control corresponds to the test performed without test compound).

[6] = target: T1, receptor MC1-R (melanocortin-1 receptor) (Mus musculus, UniProt Q01727); test: Displacement of [125I]NDP-alpha-MSH from receptor MC1-R; format: binding
Description: The binding of silybin to the receptor MC1-R (melanocortin-1 receptor) was studied.
Silybin was tested in a test of displacement of an extremely powerful MC1-R ligand: displacement of [^125I]NDP-alpha-MSH, (according to Siegrist et al, 1988, J. Recept. Res., 8: 323-343).

normal human melanocytes [7] = test: Protein synthesis (3H-leucine incorporation), normal human melanocytes; format: cell-based; settings: for Protein synthesis (3H-leucine), % of control / Protein synthesis (3H-leucine), cpm: 3 days; for Protein synthesis (3H-leucine), cpm: labelling last 24 hours
Description: (§4) after culturing for 3 days under standard conditions:
the effects on the metabolism of normal human melanocytes by incorporation of tritiated leucine into neosynthesized proteins (labelling for the last 24 hours).

normal human melanocytes [8] = test: Melanin synthesis by normal human melanocytes (10-day culture); format: cell-based; settings: 10 days
Description: The melanogenesis-stimulating effect of silybin was measured on normal human melanocyte cultures.
as §3, §1
the amount of melanin present in the cultures, by spectrophotometric measurement of the melanin produced, after alkaline extraction, relative to 100% of the control (the control corresponds to the test performed without test compound);

normal human melanocytes [9] = test: Proliferation (3H-thymidine incorporation), normal human melanocytes; format: cell-based; settings: 3 days; for Proliferation (3H-thymidine), cpm: labelling last 24 hours
Description: as §4
the effects on the proliferation of normal human melanocytes by incorporation of tritiated thymidine into DNA (labelling for the last 24 hours),

[10] = target: T1, receptor MC1-R (melanocortin-1 receptor); settings: of the order of; read-out: Affinity of the ligand for MC1-R; cited from earlier work

T1 sequence (Q01727 whole entry): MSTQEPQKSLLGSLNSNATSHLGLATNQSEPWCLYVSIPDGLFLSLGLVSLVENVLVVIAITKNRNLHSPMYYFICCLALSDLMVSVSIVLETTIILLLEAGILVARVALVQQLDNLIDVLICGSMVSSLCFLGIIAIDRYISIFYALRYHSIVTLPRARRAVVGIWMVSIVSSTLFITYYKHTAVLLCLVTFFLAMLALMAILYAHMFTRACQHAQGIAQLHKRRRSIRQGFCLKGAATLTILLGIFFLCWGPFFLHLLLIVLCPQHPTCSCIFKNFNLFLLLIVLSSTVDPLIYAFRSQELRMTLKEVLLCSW

COc1cc(C2Oc3cc([C@H]4Oc5cc(O)cc(O)c5C(=O)[C@@H]4O)ccc3OC2CO)ccc1O (stereo partly drawn) [Silybin, 2-[(2R,3R)-2,3-dihydro-3-(4-hydroxy-3-methoxyphenyl)-2-(hydroxymethyl)-1,4-benzodioxin-6-yl]-2,3-dihydro-3,5,7-trihydroxy-4H-1-benzopyran-4-one, (2R,3R)-(9CI)]
Pigmentation of the hair root [1]: display pigmentation of all of the hair root | Proteins (normal human melanocytes [2]; 0.00004% (w/v)): 0.765 mg/mL | MTT (normal human melanocytes [2]; 0.00004% (w/v)): 113% | Proteins (normal human melanocytes [2]; 0.0002% (w/v)): 0.792 mg/mL | MTT (normal human melanocytes [2]; 0.0002% (w/v)): 126% | Proteins (normal human melanocytes [2]; 0.001% (w/v)): 0.830 mg/mL | MTT (normal human melanocytes [2]; 0.001% (w/v)): 128% | Cytotoxic activity (in words) (normal human melanocytes [2]; normal human melanocytes): without any cytotoxic activity | % Positive cells (cells which have phagocytozed more than twice the basal phagocytosis), single replicates ([3]; 0.0002%): 44.29% and 42.92% and 45.88% | Positive cells, % Control ([3]; 0.0002%): 124% | % Positive cells, Mean ([3]; 0.0002%): 44% | % Positive cells (cells which have phagocytozed more than twice the basal phagocytosis), single replicates ([3]; 0.001%): 52.19% and 50.74% and 49.94% | Positive cells, % Control ([3]; 0.001%): 143% | % Positive cells, Mean ([3]; 0.001%): 51% | Phagocytosis of fluorescent particles (in words) ([3]; flow cytometry and fluorescence microscopy): significant and reproducible stimulation of phagocytosis | Proteins ([4]; 0.00004%): 1.553 mg/mL | MTT ([4]; 0.00004%): 100% | Proteins ([4]; 0.0002%): 1.594 mg/mL | MTT ([4]; 0.0002%): 100% | Proteins ([4]; 0.001%): 1.457 mg/mL | MTT ([4]; 0.001%): 89% | Cell metabolism according to MTT and protein synthesis parameters (in words) ([4]; B16F10): without modification of the cell metabolism | Effect on proliferation/protein synthesis of keratinocytes (keratinocytes): did not otherwise show any effect | Melanin ([5]; 0.00004%): 13.0 µg/mL | Melanin, % relative to 100% of the control ([5]; 0.00004%): 100% | Melanin ([5]; 0.0002%): 15.0 µg/mL | Melanin, % relative to 100% of the control ([5]; 0.0002%): 115% | Melanin ([5]; 0.001%): 33.0 µg/mL | Melanin, % relative to 100% of the control ([5]; 0.001%): 250% and 254% | Displacement of [125I]NDP-alpha-MSH ([6]; at 100 μM (0.005%)): 10% | Displacement of [125I]NDP-alpha-MSH ([6]; at 500 μM): 30% | Protein synthesis (3H-leucine), % of control (normal human melanocytes [7]; 0.0002%): 120% | Protein synthesis (3H-leucine), cpm (normal human melanocytes [7]; 0.0002%): 11705 cpm | Protein synthesis (3H-leucine), % of control (normal human melanocytes [7]; 0.001%): 124% | Protein synthesis (3H-leucine), cpm (normal human melanocytes [7]; 0.001%): 12099 cpm | Protein synthesis increase (normal human melanocytes [7]; protein neosynthesis over 72 hours): 20% | Melanin (normal human melanocytes [8]; 0.00004% (w/v)): 31.9 µg/mL | Melanin, % relative to 100% of the control (normal human melanocytes [8]; 0.00004% (w/v)): 115% | Melanin (normal human melanocytes [8]; 0.0002% (w/v)): 37.1 µg/mL | Melanin, % relative to 100% of the control (normal human melanocytes [8]; 0.0002% (w/v)): 134% | Melanin (normal human melanocytes [8]; 0.001% (w/v)): 41.5 µg/mL | Melanin, % relative to 100% of the control (normal human melanocytes [8]; 0.001% (w/v)): 150% | Proliferation (3H-thymidine), % of control (normal human melanocytes [9]; 0.0002%): 83% | Proliferation (3H-thymidine), cpm (normal human melanocytes [9]; 0.0002%): 5638 cpm | Proliferation (3H-thymidine), % of control (normal human melanocytes [9]; 0.001%): 53% | Proliferation (3H-thymidine), cpm (normal human melanocytes [9]; 0.001%): 3622 cpm

[^125I]NDP-alpha-MSH
Kd [10]: ~0.1 nM
